What all share (assay type): cell-based, rat
The test system of data set [1] is N27 cells. In words: Cytotoxicity (LDH) assay after PFF exposure. As for the experimental part:
(§1) Cytotoxicity Assay. The lactate dehydrogenase (LDH) is a cytosolic enzyme that is released into the media during cellular stress and increased levels of cytotoxicity. The cytotoxicity assay was measured using reagents from the Pierce LDH Cytotoxicity Assay Kit (88954, Thermo). For the assay, 50 μL of media from each well after PFF exposure, followed by SENP-1 treatment, was put into wells of a new 96-well plate. The LDH reagents were prepared according to the protocol provided, and 50 μL of the LDH reagent was mixed into each well. The total 100 μL of media containing LDH and its reagent were incubated at 37° C. for 30 min, followed by the application of a stop solution. The mixture was analyzed using a spectrophotometer (SpectraMax M5e, Molecular devices) at 490 nm with a reference wavelength of 680 nm.
In this study, numerous commercially available SENP-1 inhibitors were tested for the recovery effects from preformed fibrils of alpha-synuclein (PFF)-induced PD models in vitro. The screening process includes several SENP-1 inhibitors, including specific SENP-1 inhibitors (e.g., SUMO-2 Aldehyde, Momordin lc, streptonigrin, hinokiflavonem, and siRNAs of SENP-1) and nonspecific SENP-1 inhibitors (e.g., oleanolic acid, gallic acid), in N27 dopaminergic cells after the exposure of PFF for 24 hrs.

Data set [2] relates to N27 dopaminergic cells. In words: Screening of SENP-1 inhibitors (LDH, MTT, ROS, Thioflavin-T) in PFF-induced PD model in vitro. The following applies: N27 dopaminergic cells after exposure to PFF for 24 hrs.
From the text: (§2) Cell Viability Assay. The MTT assay is a colorimetric assay that is based on the conversion of water-soluble MTT (3-(4,5-dimethylthiazol-2-yl)-2,5-diphenyltetrazolium bromide) into formazan crystal by mitochondrial dehydrogenase enzymes, soluble in 100% DMSO. The resulting solution is purple in color, and the color intensity is proportional to the viable cells for each well in a 96-well plate. A variety of SENP-1 inhibitors, such as SUMO-2 aldehyde, Momordin lc, streptonigrin, hinokiflavone, oleanolic acid and siRNA of SENP-1, were treated in N27 cells after PFF (1 μg/ml) exposure for 24 h. After adding 5 mM MTT dye to cells, the color intensity in MTT assays was measured using a spectrophotometer (SpectraMax M5e, Molecular devices, Dover, USA), at 570 nm with a reference wavelength of 630 nm. The cells were incubated with the MTT reagent (ab211091, Abcam) at 37° C. for 3 h, followed by solubilizing the formazan crystals in solution.
as §1
ROS Levels and Thioflavin-T Assessment. The reactive oxygen species (ROS) is a released byproduct during oxidative stress. On the other hand, thioflavin-T is an assay used to understand the level of protein aggregation that can be detrimental to cell survival. In order to assess the level of oxidative stress, all the SENP-1 inhibitors treated cells were incubated in media containing 5 μg/mL of the ROS reagent CellROX deep red reagent (C10422, Thermo Fisher Scientific) and 25 μg/mL of thioflavin-T reagent (CAS: 2390-54-7, Acros Organics) at 37° C. for 30 min. The cells were then washed 3 times with warm phosphate-buffered saline (PBS) without Ca^2+ or Mg^2+ (137 mM NaCl, 2.7 mM KCl, 4.3 mM Na2HPO4, and 1.47 mM KH2PO4), and several images from each well were collected using EVOS FL Cell Imaging Systems (Invitrogen, MA, USA). […] The intensity of red fluorescence corresponding to ROS levels and green labels corresponding to protein aggregation was analyzed by blinded raters using ImageJ. […]

Data set [3] deals with N27 cells. In words: ROS level (CellROX deep red) after PFF treatment. The following applies: compared to PFF only control. The protocol:
ROS Levels and Thioflavin-T Assessment. The reactive oxygen species (ROS) is a released byproduct during oxidative stress. On the other hand, thioflavin-T is an assay used to understand the level of protein aggregation that can be detrimental to cell survival. In order to assess the level of oxidative stress, all the SENP-1 inhibitors treated cells were incubated in media containing 5 μg/mL of the ROS reagent CellROX deep red reagent (C10422, Thermo Fisher Scientific) and 25 μg/mL of thioflavin-T reagent (CAS: 2390-54-7, Acros Organics) at 37° C. for 30 min. The cells were then washed 3 times with warm phosphate-buffered saline (PBS) without Ca^2+ or Mg^2+ (137 mM NaCl, 2.7 mM KCl, 4.3 mM Na2HPO4, and 1.47 mM KH2PO4), and several images from each well were collected using EVOS FL Cell Imaging Systems (Invitrogen, MA, USA). A minimum of 2 wells were dedicated to each group, and the experiments were repeated 3-4 times independently (total replicated: n=8-10/group). The intensity of red fluorescence corresponding to ROS levels and green labels corresponding to protein aggregation was analyzed by blinded raters using ImageJ.

Data set [4] concerns N27 cells. In words: Cell viability (MTT) assay after PFF exposure. The following applies: N27 cells after PFF (1 μg/ml) exposure for 24 h; compared to PFF only control.
From the text: as §2
In this study, numerous commercially available SENP-1 inhibitors were tested for the recovery effects from preformed fibrils of alpha-synuclein (PFF)-induced PD models in vitro. […]

Each structure is given as a SMILES string. Read-outs that look alike come from different tables or passages of the source.

As for `COC1=C(N)C(=O)c2nc(-c3nc(C(=O)O)c(C)c(-c4ccc(OC)c(OC)c4O)c3N)ccc2C1=O` [Streptonigrin, streptonigrin], the “cytotoxicity derived from PFF (LDH assay)” value in data set [1] (N27 cells, PFF treatment, compared to PFF only control) was “significantly reduced the cytotoxicity”. Further, the “efficacy in preventing protein aggregation-mediated damage and reversing PFF-induced damage (LDH, MTT, ROS, Thioflavin-T assays)” value (from here on “efficacy”) in data set [2] was “clearly efficacious”. Besides, in data set [3], the “level of ROS” value was “reduced the level of ROS”. Moreover, the “cell viability from PFF-mediated toxicity (MTT assay)” value in data set [4] is given as “significantly enhanced the cell viability”.

For the compound `O=C(O)c1cc(O)c(O)c(O)c1` [gallic acid], the “efficacy” value in data set [2] is “did not show an efficacy”.

Take `O=c1cc(-c2ccc(Oc3c(O)cc4oc(-c5ccc(O)cc5)cc(=O)c4c3O)cc2)oc2cc(O)cc(O)c12` [Hinokiflavone, hinokiflavone]: the “cytotoxicity derived from PFF (LDH assay)” value in data set [1] is “significantly reduced the cytotoxicity”.

On to `CC1(C)CC[C@]2(C(=O)O)CC[C@]3(C)C(=CC[C@@H]4[C@@]5(C)CC[C@H](O)C(C)(C)[C@@H]5CC[C@]43C)[C@@H]2C1` [oleanolic acid], for which the “efficacy” value in data set [2] is “did not show an efficacy”.

The values are drawn from patent US20260021167A1, “COMPOSITIONS AND METHODS FOR TREATING OR PREVENTING NEURODEGENERATIVE DISEASES” (Delaware State University, priority 2022, published 2026).
